Results: patent US12227488B2, “Small molecule degraders of Helios and methods of use” (DANA-FARBER CANCER INSTITUTE, INC., priority 2018, dated 2025)
Entries after “also recorded” stand apart in the source; their conditions may differ.

Tests used:
SALL4 ZNF1-2 = molecular target: T1, SALL4 ZNF1-2 (Homo sapiens, UniProt Q96SW2+Q9UJQ4); experiment: Cellular degradation assay, eGFP-SALL4 ZnF1-2 fusion with mCherry reporter in Flp-In 293 cells; type: cell-based; conditions: 5 h incubation, n=1
T1 construct: IKZF1Δ, IKZF2Δ, GSPT1 and SALL4 ZnF1-2 were subcloned; expressed in transfected cells; host or cells: Flp-In 293
Protocol: IKZF1Δ, IKZF2Δ, GSPT1 and SALL4 ZnF1-2 were subcloned into mammalian pcDNA5/FRT Vector (Ampicillin and Hygromycin B resistant) modified to contain MCS-eGFP-P2A-mCherry. Stable cell lines expressing eGFP-protein fusion and mCherry reporter were generated using Flp-In™ 293 system. Plasmid (0.3 μg) and pOG44 (4.7 μg) DNA were preincubated in 100 μL of Opti-MEM® I (Gibco®, Life Technologies™) media containing 0.05 mg/mL Lipofectamine® 2000 (Invitrogen™) for 20 min and added to Flp-In™ 293 cells containing 1.9 ml of DMEM media (Gibco®, Life Technologies™) per well in a 6-well plate format (Falcon, 353046). Cells were propagated after 48 h and transferred into a 10 cm^2 plate (Corning, 430165) in DMEM media containing 50 μg/mL of Hygromycin B (REF 10687010, Invitrogen™) as a selection marker. Following 2-3 passage cycle, FACS (FACSAria™ II, BD) was used to enrich for cells expressing eGFP and mCherry. Cells stably expressing the IKZF1Δ, IKZF2Δ, GSPT1 or SALL4 Znf1-2 GFP fusions with mCherry reporter were seeded at 30-50% confluency in 384-well plates with 50 μL FluoroBrite™ DMEM media (Thermo Fisher Scientific, A18967) containing 10% FBS per well a day before compound treatment. Compound titrations were dispensed using a D300e Digital Dispenser (HP), normalized to 0.5% DMSO, and incubated with cells for 5 hours. The assay plate was imaged immediately using an Acumen® High Content Imager (TTP Labtech) with 488 nm and 561 nm lasers in […] grid per well format.
The resulting images were analyzed using CellProfiler™. A series of image analysis steps (‘image analysis pipeline’) was constructed. First, the red and green channels were aligned and cropped to target the middle of each well (to avoid analysis of heavily clumped cells at the edges), and a background illumination function was calculated for both red and green channels of each well individually and subtracted to correct for illumination variations across the 384-well plate from various sources of error. An additional step was then applied to the green channel to suppress the analysis of large auto fluorescent artifacts and enhance the analysis of cell specific fluorescence by way of selecting for objects under a given size, 30 A.U., and with a given shape, speckles. mCherry-positive cells were then identified in the red channel filtering for objects between 8-60 pixels in diameter and using intensity to distinguish between clumped objects. The green channel was then segmented into GFP positive and negative areas and objects were labeled as GFP positive if at least 40% of it overlapped with a GFP positive area. The fraction of GFP-positive cells/mCherry-positive cells in each well was then calculated, and the green and red images were rescaled for visualization.

CRBN and Helios (IKZF2) = molecular target: T2, CRBN and Helios (IKZF2) (Homo sapiens, UniProt Q96SW2+Q9UKS7); experiment: TR-FRET dimerization assay (CRBN-IKZF2 ternary complex formation); type: binding; conditions: for TR-FRET-IKZF2 (Normalized to CC-885): n=1
T2 construct: His (N); Strep (N)
Summary of the method: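 BODIPY-labeled DDB1ΔB-CRBN and in vitro biotinylated IKZF2 were treated with increasing compound concentrations plus tracer Terbium-Streptavidin and incubated 15 min at rt. Recruitment was quantified as the 520/490 nm TR-FRET ratio; values are single measurements (n=1), each averaged from at least three technical replicates.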

GSPT1 = GSPT1 (Homo sapiens, UniProt P15170+Q96SW2); experiment: Cellular degradation assay, eGFP-GSPT1 fusion with mCherry reporter in Flp-In 293 cells; type: cell-based; parameters: expressed in transfected cells; host or cells: Flp-In 293; conditions: for GSPT1 GFP/RFP Relative Abundance: 5 h incubation, n=1
Summary of the method: (§1)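 Flp-In 293 cells stably expressing eGFP-tagged degron fusions with P2A-mCherry reporter were treated with compound titrations (0.5% DMSO) for 5 hours. Imaging quantified GFP-positive/mCherry-positive cell fraction per well; DC50 at 5 h from nonlinear variable-slope fit.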

IKZF2 = experiment: Cellular degradation assay, eGFP-IKZF2Δ fusion with mCherry reporter in Flp-In 293 cells; type: cell-based; conditions: for IKZF2 GFP/RFP Relative Abundance: 5 h incubation, n=1
Summary of the method: as §1

IKZF1 = molecular target: T3, IKZF1 (Homo sapiens, UniProt Q13422); experiment: Cellular degradation assay, eGFP-IKZF1Δ fusion with mCherry reporter in Flp-In 293 cells; type: cell-based; conditions: for IKZF1 GFP/RFP Relative Abundance: 5 h incubation, n=1
T3 construct: expressed in transfected cells; host or cells: Flp-In 293
Summary of the method: as §1

[1] = compound concentration 2.00E−05
[2] = compound concentration 2.00E−06
[3] = compound concentration 2.00E−07
[4] = compound concentration 6.6667E−05
[5] = compound concentration 6.6667E−06
[6] = compound concentration 6.6667E−07 (667 nM)
[7] = half degradation at 5 h (DC50,5 h), triplicate, 11 point dose response

T3 sequence (Q13422 83-213 isoform Q13422-7 limits assumed): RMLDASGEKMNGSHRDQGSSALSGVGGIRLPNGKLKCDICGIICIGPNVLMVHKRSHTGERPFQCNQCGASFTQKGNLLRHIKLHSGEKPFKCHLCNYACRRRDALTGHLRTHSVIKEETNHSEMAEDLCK
T3 sequence (Q96SW2 whole entry partner, the tested form may be a part): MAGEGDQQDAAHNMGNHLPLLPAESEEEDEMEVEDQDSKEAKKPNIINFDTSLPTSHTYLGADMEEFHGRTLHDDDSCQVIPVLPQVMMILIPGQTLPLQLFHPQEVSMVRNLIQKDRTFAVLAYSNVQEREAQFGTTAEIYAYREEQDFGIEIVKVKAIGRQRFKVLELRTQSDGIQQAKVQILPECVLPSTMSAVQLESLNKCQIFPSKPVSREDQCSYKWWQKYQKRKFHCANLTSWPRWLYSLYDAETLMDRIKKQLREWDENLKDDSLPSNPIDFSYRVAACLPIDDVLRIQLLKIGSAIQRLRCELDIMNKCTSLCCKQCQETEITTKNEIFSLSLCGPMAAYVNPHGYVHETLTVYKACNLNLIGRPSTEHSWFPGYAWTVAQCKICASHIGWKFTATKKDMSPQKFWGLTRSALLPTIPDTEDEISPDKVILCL
T3 sequence (Q16531 2-1140 partner limits assumed): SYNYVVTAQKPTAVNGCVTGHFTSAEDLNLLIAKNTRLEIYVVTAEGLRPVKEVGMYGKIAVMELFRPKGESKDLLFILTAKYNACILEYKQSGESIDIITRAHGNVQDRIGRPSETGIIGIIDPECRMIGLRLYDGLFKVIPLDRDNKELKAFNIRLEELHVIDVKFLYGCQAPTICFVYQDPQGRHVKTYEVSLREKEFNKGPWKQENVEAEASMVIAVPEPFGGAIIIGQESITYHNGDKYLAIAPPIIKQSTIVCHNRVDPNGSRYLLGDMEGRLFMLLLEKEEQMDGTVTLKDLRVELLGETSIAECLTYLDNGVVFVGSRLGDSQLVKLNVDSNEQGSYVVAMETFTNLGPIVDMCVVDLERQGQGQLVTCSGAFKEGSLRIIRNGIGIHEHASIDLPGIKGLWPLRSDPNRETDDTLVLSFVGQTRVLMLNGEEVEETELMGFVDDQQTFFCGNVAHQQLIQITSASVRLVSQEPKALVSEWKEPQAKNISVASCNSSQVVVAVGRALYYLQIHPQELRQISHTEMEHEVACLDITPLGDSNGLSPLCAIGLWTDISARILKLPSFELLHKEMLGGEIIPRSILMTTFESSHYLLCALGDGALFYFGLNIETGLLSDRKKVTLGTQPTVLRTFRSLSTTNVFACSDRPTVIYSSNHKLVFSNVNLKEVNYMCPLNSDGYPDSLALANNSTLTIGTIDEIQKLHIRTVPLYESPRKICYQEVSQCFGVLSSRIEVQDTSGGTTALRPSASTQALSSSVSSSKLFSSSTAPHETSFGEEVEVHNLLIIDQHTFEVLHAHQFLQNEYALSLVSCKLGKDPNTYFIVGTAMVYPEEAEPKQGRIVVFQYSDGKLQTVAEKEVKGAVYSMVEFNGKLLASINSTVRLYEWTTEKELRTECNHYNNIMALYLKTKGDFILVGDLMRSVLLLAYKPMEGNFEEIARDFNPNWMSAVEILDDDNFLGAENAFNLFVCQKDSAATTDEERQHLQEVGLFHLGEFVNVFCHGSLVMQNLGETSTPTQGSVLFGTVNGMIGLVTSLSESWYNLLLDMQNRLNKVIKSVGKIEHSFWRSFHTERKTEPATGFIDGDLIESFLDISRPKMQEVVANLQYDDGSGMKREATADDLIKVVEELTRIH
T1 sequence (Q9UJQ4 378-438 limits assumed): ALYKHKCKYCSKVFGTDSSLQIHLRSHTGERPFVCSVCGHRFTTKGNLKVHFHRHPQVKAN
T1 sequence (Q96SW2 whole entry, the tested form may be a part): as the sequence (Q96SW2 whole entry partner, the tested form may be a part) above
T1 sequence (Q16531 whole entry partner, the tested form may be a part): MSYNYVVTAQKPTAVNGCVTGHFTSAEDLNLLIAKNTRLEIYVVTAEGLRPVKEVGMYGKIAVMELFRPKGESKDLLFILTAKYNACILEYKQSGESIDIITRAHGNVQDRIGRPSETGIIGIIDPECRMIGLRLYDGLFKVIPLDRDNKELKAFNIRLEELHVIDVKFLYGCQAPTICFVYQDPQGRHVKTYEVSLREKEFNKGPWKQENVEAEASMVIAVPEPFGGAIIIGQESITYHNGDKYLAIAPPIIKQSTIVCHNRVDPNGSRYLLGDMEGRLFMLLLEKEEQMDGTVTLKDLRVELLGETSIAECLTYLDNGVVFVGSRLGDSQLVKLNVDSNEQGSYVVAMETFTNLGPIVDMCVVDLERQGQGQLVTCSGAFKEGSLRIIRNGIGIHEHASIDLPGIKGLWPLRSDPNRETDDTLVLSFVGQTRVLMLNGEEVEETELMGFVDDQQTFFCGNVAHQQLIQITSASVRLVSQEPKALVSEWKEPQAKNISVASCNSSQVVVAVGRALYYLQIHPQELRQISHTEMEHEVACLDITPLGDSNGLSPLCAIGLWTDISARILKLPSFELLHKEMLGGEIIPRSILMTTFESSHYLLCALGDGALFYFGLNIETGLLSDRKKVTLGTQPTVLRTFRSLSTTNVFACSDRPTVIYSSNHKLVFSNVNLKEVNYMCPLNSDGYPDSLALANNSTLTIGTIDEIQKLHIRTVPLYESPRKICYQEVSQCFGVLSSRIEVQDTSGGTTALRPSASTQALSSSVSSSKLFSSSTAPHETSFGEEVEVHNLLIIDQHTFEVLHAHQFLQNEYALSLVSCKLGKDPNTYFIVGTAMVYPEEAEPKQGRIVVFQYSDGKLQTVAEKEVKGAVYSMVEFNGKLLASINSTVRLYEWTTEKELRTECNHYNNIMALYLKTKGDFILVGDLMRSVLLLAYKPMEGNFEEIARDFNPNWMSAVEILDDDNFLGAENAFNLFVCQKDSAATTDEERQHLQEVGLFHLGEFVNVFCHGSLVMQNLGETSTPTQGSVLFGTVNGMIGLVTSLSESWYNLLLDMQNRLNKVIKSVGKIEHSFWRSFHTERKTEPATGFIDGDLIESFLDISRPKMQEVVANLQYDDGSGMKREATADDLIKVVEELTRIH
GSPT1, sequence (P15170 whole entry, the tested form may be a part): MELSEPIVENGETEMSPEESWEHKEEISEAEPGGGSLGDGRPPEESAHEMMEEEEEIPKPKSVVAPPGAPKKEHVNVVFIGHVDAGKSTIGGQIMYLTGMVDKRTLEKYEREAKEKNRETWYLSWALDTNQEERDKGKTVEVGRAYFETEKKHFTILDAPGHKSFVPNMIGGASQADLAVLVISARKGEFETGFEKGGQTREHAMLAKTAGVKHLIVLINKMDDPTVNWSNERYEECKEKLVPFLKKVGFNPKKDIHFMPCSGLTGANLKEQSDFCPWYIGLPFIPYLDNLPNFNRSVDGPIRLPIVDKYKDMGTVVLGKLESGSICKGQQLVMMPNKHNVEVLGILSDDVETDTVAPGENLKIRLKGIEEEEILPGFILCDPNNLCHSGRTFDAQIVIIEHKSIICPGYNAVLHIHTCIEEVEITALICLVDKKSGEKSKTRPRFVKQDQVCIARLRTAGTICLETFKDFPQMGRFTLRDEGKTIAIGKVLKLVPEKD
GSPT1, sequence (Q96SW2 whole entry, the tested form may be a part): as the sequence (Q96SW2 whole entry partner, the tested form may be a part) above
GSPT1, sequence (Q16531 whole entry partner, the tested form may be a part): as the sequence (Q16531 whole entry partner, the tested form may be a part) above
T2 sequence (Q96SW2 whole entry): as the sequence (Q96SW2 whole entry partner, the tested form may be a part) above
T2 sequence (Q9UKS7 whole entry): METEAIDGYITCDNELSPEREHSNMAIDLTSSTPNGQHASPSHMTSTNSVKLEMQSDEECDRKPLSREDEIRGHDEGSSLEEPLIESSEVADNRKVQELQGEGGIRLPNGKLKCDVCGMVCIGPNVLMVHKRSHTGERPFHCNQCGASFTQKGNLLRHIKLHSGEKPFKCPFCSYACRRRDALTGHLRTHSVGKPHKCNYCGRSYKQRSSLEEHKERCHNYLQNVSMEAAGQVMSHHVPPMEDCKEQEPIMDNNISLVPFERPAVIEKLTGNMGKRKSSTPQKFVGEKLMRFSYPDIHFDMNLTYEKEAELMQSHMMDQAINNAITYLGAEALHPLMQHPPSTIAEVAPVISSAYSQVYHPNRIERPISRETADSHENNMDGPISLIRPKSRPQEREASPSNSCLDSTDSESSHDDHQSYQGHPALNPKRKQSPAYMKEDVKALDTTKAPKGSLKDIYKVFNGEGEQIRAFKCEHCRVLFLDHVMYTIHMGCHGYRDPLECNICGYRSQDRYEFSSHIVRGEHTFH

| Structure (SMILES) | SALL4 ZNF1-2 GFP/RFP Relative Abundance (SALL4 ZNF1-2; [1]) | SALL4 ZNF1-2 GFP/RFP Relative Abundance (SALL4 ZNF1-2; [2]) | SALL4 ZNF1-2 GFP/RFP Relative Abundance (SALL4 ZNF1-2; [3]) | TR-FRET signal (520/490 ratio), CRBN-Helios dimerization, in words (CRBN and Helios (IKZF2); FIG. 1B, 2A, 5) | TR-FRET-IKZF2 (Normalized to CC-885) (CRBN and Helios (IKZF2); [4]) | TR-FRET-IKZF2 (Normalized to CC-885) (CRBN and Helios (IKZF2); [5]) | TR-FRET-IKZF2 (Normalized to CC-885) (CRBN and Helios (IKZF2); [6]) | GSPT1 GFP/RFP Relative Abundance (GSPT1; [1]) | GSPT1 GFP/RFP Relative Abundance (GSPT1; [2]) | GSPT1 GFP/RFP Relative Abundance (GSPT1; [3]) | DC50 (GSPT1; [7]) [nM] | IKZF2 cellular degradation, in words (IKZF2; Table 1 summary) | IKZF2 GFP/RFP Relative Abundance (IKZF2; [1]) | IKZF2 GFP/RFP Relative Abundance (IKZF2; [2]) | IKZF2 GFP/RFP Relative Abundance (IKZF2; [3]) | DC50 (IKZF2; [7]) [nM] | IKZF1 GFP/RFP Relative Abundance (IKZF1; [1]) | IKZF1 GFP/RFP Relative Abundance (IKZF1; [2]) | IKZF1 GFP/RFP Relative Abundance (IKZF1; [3]) | DC50 (IKZF1; [7]) [nM] |
| --- | --- | --- | --- | --- | --- | --- | --- | --- | --- | --- | --- | --- | --- | --- | --- | --- | --- | --- | --- | --- |
| Cc1ccc(NC(=O)NCc2ccc3c(c2)CN(C2CCC(=O)NC2=O)C3=O)cc1Cl (centres unmarked) [CC-885, reference compound] | 1.000 | 0.876 | 0.852 | some activity; also recorded: able to recruit IKZF2 to CRBN | 1.065 | 0.982 | 0.953 | 0.240 | 0.041 | 0.012 | 0.084 | degrade the IKZF2 in cellular assay | 0.277 | 0.281 | 0.289 | 80.7 | 0.133 | 0.071 | 0.077 | 0.56 |
| O=C1CCC(N2C(=O)C=C(Nc3ccccc3)C2=O)C(=O)N1 (centres unmarked) [Compound 2, 3-(2,5-dioxo-3-(phenylamino)-2,5-dihydro-1H-pyrrol-1-yl)piperidine-2,6-dione] | 0.724 | 0.762 | 0.774 | – | 0.386 | 0.306 | 0.286 | 0.763 | 0.903 | 0.930 | – | – | 0.878 | 0.920 | 0.864 | – | 0.143 | 0.143 | 0.147 | – |
| Cc1ccc(NC2=CC(=O)N(C3CCC(=O)NC3=O)C2=O)cc1Cl (centres unmarked) [Compound 3, 3-(3-((3-chloro-4-methylphenyl)amino)-2,5-dioxo-2,5-dihydro-1H-pyrrol-1-yl)piperidine-2,6-dione] | 0.914 | 0.884 | 0.879 | – | 0.357 | 0.267 | 0.253 | 1.204 | 1.006 | 1.190 | – | – | 1.032 | 0.973 | 0.979 | – | 0.242 | 0.370 | 0.349 | – |
| Cc1cc(NC2=CC(=O)N(C3CCC(=O)NC3=O)C2=O)ccc1Cl (centres unmarked) [Compound 4, 3-(3-((4-chloro-3-methylphenyl)amino)-2,5-dioxo-2,5-dihydro-1H-pyrrol-1-yl)piperidine-2,6-dione] | 0.862 | 0.850 | 0.903 | – | 0.485 | 0.411 | 0.270 | 0.922 | 0.904 | 0.750 | – | – | 0.925 | 1.028 | 1.002 | – | 0.314 | 0.433 | 0.550 | – |
